In PubChem BioAssay (NCI):
Where “and” joins values, the source holds several entries; their conditions need not be identical. Identical values can stand only once.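 How tested: cells in 96-well plates exposed to compound for 48 hours at five concentrations. Here, GI50 denotes the concentration required for 50% inhibition of growth. At the TGI there is no net growth.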

Columns and labels:
Assay in all cases: NCI-60 cell line screen, 48 h
[1] = system: UO-31 renal
[2] = system: ACHN renal
[3] = system: MDA-MB-435
[4] = system: CCRF-CEM leukemia
[5] = system: SNB-75 CNS
[6] = system: SR leukemia
[7] = system: DU-145 prostate
[8] = system: EKVX NSCLC

Structure (SMILES) | GI50 [1] | TGI [1] | GI50 [2] | TGI [2] | GI50 [3] | TGI [3] | GI50 [4] | TGI [4] | GI50 [5] | TGI [5] | GI50 [6] | TGI [6] | GI50 [7] | TGI [7] | GI50 [8] | TGI [8]
O=C1C(=O)c2ccccc2C(O)=C1CC=C(Br)Br | 6.13 µM | 62.1 µM | 4.71 µM | 92.3 µM | 5.26 µM | 98 µM | 2.7 µM | > 100 µM | 2.58 µM | 59.5 µM | 2.57 µM | 55.9 µM | 9.36 µM | > 100 µM |  | 
O=C(Nc1cc(Cl)cc(Cl)c1)c1ccc(NC2=C(Cl)C(=O)N(Cc3ccc(Cl)cc3Cl)C2=O)cc1 | 1.7 µM | 3.25 µM | 19 µM | 48.9 µM | 25 µM | 57.9 µM | 0.22 µM | 0.819 µM | 68 µM | > 100 µM | 0.0622 µM | 0.238 µM | 20.1 µM | 50.7 µM | 21.2 µM | 71.4 µM
O=C(CNc1ccc2c(c1)C(=O)c1ccccc1C2=O)Nc1ccc2c(c1)C(=O)c1ccccc1C2=O | 1.67 µM | 3.1 µM | 1.58 µM | 3.01 µM | 0.85 µM | 2.29 µM |  |  | 1.79 µM | 4.3 µM |  |  | 1.53 µM | 2.87 µM | 1.88 µM | 4.02 µM
NC(N)=N/N=C\c1cccc(OCc2ccccc2)c1 | 7.35 µM | 27.9 µM | 4.29 µM | 18.5 µM | 1.97 µM | 4.56 µM | 9.53 µM | 33.7 µM | 7.03 µM | 23.4 µM |  |  | 11.4 µM | 23.9 µM | 11 µM | 25.4 µM
Cc1ccc(-n2c3c(c4c(CN(C)C)c(O)ccc42)CCc2ccccc2C3=O)cc1 | 15.9 µM | 38.2 µM | 16.3 µM | 36 µM | 15.2 µM | 30.4 µM |  |  |  |  |  |  | 37.3 µM | > 100 µM | 38 µM | > 100 µM
CC[C@H](Nc1nc(NCc2cnc(C)cc2C)c2ncn(C(C)C)c2n1)[C@@H](C)O | 0.272 µM | > 100 µM | 0.327 µM | > 100 µM | 0.362 µM | 10.8 µM | 0.326 µM | > 100 µM | 0.159 µM | 0.407 µM |  |  | 0.387 µM | > 100 µM | 0.319 µM | 2.02 µM
C#CCC(Cc1cnc2nc(N)nc(N)c2n1)c1ccc(C(=O)N[C@@H](CCC(=O)O)C(=O)O)cc1 (some centres not stated) | < 0.01 µM | > 100 µM | < 0.01 µM | > 100 µM | < 0.01 µM | > 100 µM | < 0.01 µM | > 100 µM | < 0.0502 µM | > 100 µM | < 0.01 µM | > 100 µM | < 0.01 µM | > 100 µM |  | > 100 µM
CC(C)(O)CS(=O)(=O)Nc1ccc2c(c1)CCN(C(=O)COc1cccnc1)C2 | > 100 µM | > 100 µM | > 100 µM | > 100 µM | 0.518 µM | > 100 µM | 1.02 µM | > 100 µM | > 100 µM | > 100 µM | > 45.7 µM | > 100 µM | 0.618 µM | > 100 µM | > 100 µM | > 100 µM
CCOC(=O)c1[nH]c(Br)c(-c2ccc(Br)cc2)c1Br | 1.13 µM | 5.71 µM and 8.57 µM | 0.929 µM | 3.63 µM and 8.45 µM | 0.0997 µM | 0.546 µM and 0.289 µM | 0.278 µM | 1.11 µM | 0.461 µM | 2.68 µM and 4.41 µM | 0.199 µM | 11.1 µM | 2.19 µM | 55.8 µM | 0.852 µM | 17.3 µM
O=C1/C(=C/c2ccccc2)CN(C(=O)c2cccnc2)C/C1=C\c1ccccc1 | 1.4 µM | 2.9 µM | 1.99 µM | 4.53 µM | 0.483 µM | 2.15 µM | 0.558 µM | 6.05 µM | 5.48 µM | 26.7 µM | 0.311 µM | 1.35 µM | 2.04 µM | 6.13 µM | 2.86 µM | 11.1 µM
COc1cc(-c2nn(-c3cccc(NC(=O)Nc4cc(C(F)(F)F)cc(C(F)(F)F)c4)c3)cc2-c2ccncc2)ccc1Cl | 0.612 µM | 1.52 µM | 0.309 µM | 16.9 µM | 0.772 µM | 1.85 µM | 0.498 µM | 2.79 µM | 0.961 µM | 2.74 µM | 0.8 µM | 2.99 µM | 0.987 µM | 5.59 µM |  | 
Cc1cc2nc3c4cc(N)ccc4n(CCN(C)C)c3nc2cc1C | 0.439 µM | 4.8 µM | 0.351 µM | 9.7 µM | 0.979 µM | 3.25 µM | 0.891 µM | 17.6 µM | 1.16 µM | 6.82 µM | 0.285 µM | 7.29 µM | 1.11 µM | 11.7 µM | 1.59 µM | 12.5 µM
c1ccc2[nH]c(-c3ccc(NN=Nc4ccncc4)cc3)nc2c1 | 43.6 µM | > 100 µM | 31.2 µM | > 100 µM | 30.7 µM | > 100 µM |  |  | > 100 µM | > 100 µM | 47.7 µM | > 100 µM | 47 µM | > 100 µM | 11.2 µM | 54.1 µM
COc1c(OC)c(OC)c2c(c1OC)c(=O)c1ccccc1n2C |  | > 100 µM |  | > 100 µM |  | > 100 µM |  |  |  | > 100 µM |  | > 100 µM |  | > 100 µM |  | > 100 µM
CC1(C)N=C(N)N=C(N)N1c1ccc(OCCCCOc2ccc(S(=O)(=O)F)cc2)c(Cl)c1 | 24.4 µM | > 100 µM | 1.68 µM | > 100 µM | 0.0604 µM | 16.3 µM | 0.0794 µM | 17.6 µM | 0.737 µM | 17.1 µM | 0.0445 µM | 26.9 µM | 0.194 µM | 16 µM |  | 
CCc1c(C#N)c(S[C@@H](C(N)=O)c2ccccc2)nc(N(C)C)c1C#N | 2.95 µM | > 100 µM | 3.9 µM | > 100 µM | > 100 µM | > 100 µM | > 100 µM | > 100 µM | 2.11 µM | 7.18 µM |  |  | > 100 µM | > 100 µM | 7.93 µM | > 100 µM
